Source: patent EP4729514A1, “BICYCLIC DERIVATIVE PARP INHIBITOR AND USE THEREOF” (Haisco Pharmaceutical Group Co., Ltd., priority 2023, dated 2024)
Read-outs that look alike come from different tables or passages of the source.

Tests used:
PARP-1 = target: T1, PARP-1 (Homo sapiens, UniProt P09874); assay: PARP1 enzyme activity assay (FP method, fluorescent probe); format: biochemical
T1 construct: purchased BPS 80501
Experimental: The inhibition of compounds on PARP1/2 enzyme activity was tested using the FP method. The substrate tracer fluorescent probe (from ICE BIOSCIENCE INC.) in the reaction was prepared in a reaction buffer (50 mM Tris (pH 8.0), 10 mM MgCl2, 150 mM NaCl, 0.001% Triox-100). PARP1/2 (BPS, Cat #80501/80502) was added to the reaction buffer, and gently mixed. The final concentrations of PARP1/2 and the fluorescent probe in the reaction mixture were 5/10 nM and 2.5 nM, respectively. Positive reference Olaparib was serially diluted 3-fold, from an initial concentration of 1 µM, to generate 10 concentration points. 0.1 µL of the compound in 100% DMSO was delivered to a 384-well plate (Corning, 4514) by the acoustic liquid conveyor (Echo 655), and the plate was centrifuged at 1000 rpm for 1 minute; 5 µL of PARP enzyme solution was transferred into the 384-well reaction plate, and the plate was centrifuged at 1000 rpm for 1 minute, and incubated at 25°C for 10 min; 5 µL of substrate solution was transferred into the 384-well reaction plate, and the plate was centrifuged at 1000 rpm for 1 minute, and incubated at 25°C for 60 minutes; finally, the mP signal value of FP (ex/em: 485 nm/520 nm) was read using the fluorescence polarisation module of the BMG PHERAstar FSX. Subsequently, the IC50 value was determined by fitting the data to a four-parameter nonlinear regression curve using GraphPad Prism 8 software. The inhibition rate was calculated according to formula 1, where RLUsample represents the readout of the compound well, RLUmax represents the readout of the solvent control well, and RLUmin represents the readout of the control well without the PARP1/2 enzyme. The IC50 value was determined by fitting the data to a four-parameter curve (log(inhibitor) vs. response -- Variable slope) using GraphPad Prism software. Inhibition% = (1−(RLUsample−RLUmin)/(RLUmax−RLUmin)) × 100% [formula] Table 1 PARP-1 enzyme activity

DLD-1 = DLD-1 cell activity assay (CellTiter-Glo, 7 days); format: cell-based; conditions: Homo sapiens, 168 h, 7 days incubation; for inhibition at 10 µM: read-out: Max inh.% 10 µM; for IC50: table does not say whether DLD-1 or DLD-1 BRCA2 KO
Experimental: DLD-1 (150 cells/well/100 µL) (ATCC, CCL-221) and DLD-1 BRCA2 KO (1500 cells/well/100 µL) (from ICE BIOSCIENCE INC.) were inoculated into a 96-well plate (Greiner, 655090) at appropriate cell densities and incubated overnight in a cell incubator at 37°C. The test compound was diluted in the corresponding cell culture medium, and the mixture was added to the well plate and incubated for 7 days. On the fourth day, the medium was replaced with a fresh medium containing the same concentrations of the compounds. The CellTiter-Glo reagent (CTG, Vazyme, DD1101-03) and the culture plate were taken out and returned to room temperature, and then 60 µL of CTG reagent was added to the cells. The plate was then shaken for 2 minutes to ensure complete cell lysis and placed at room temperature for 30 minutes. Luminescence signal values were read using a microplate reader (PHERAstar FSX). The wells containing only culture medium were used as negative controls, and the DMSO-containing wells were used as positive controls. The inhibitory activity percentage of the compounds was normalised using the readings from the negative and positive controls. Calculation formula of inhibition rate: [formula] Table 2 DLD-1 cell activity

A549 PARP2 KO = assay: PARP selectivity experiment (pADPr immunofluorescence after H2O2 stimulation), A549 PARP2 KO cells; format: cell-based
Experimental: (§1) A549WT, A549 PARP1 KO and A549 PARP2 KO cell lines were inoculated into a 384-well plate at 2500/40 µL/well, and incubated overnight at 37°C with 5% CO2. On the next day, 40 nL of serially diluted compounds were added, and the cells were incubated at 37°C with 5% CO2 for 1 hour. The cells were stimulated by adding 5 µL of H2O2. A549 WT and A549 PARP2 KO were stimulated with a final concentration of 200 µM for 5 minutes, and A549 PARP1 KO was stimulated with a final concentration of 20 mM for 45 minutes. After the stimulation, the supernatant was discarded, and the cells were fixed with 40 µL of pre-cooled methanol in a refrigerator at 4°C for 20 minutes. The cells were washed twice with PBS, and blocked with 20 µL of blocking buffer for 1 hour. A primary antibody mixture (prepared by diluting the pADPr antibody (10H: sc-56198) 1 : 500 in blocking buffer) was added, and the plate was incubated overnight at 4°C. The cells were washed three times with PBST. A secondary antibody mixture (prepared by diluting the goat anti-mouse IgG (H+L) highly cross-adsorbed secondary antibody (Alexa Fluor™ 488) 1 : 500 in blocking buffer) was added, and the plate was incubated at room temperature for 1 hour. The cells were washed three times with PBST, and 20 µL of DAPI solution (1 : 5000 dilution) was added. The plate was incubated at room temperature for 10 minutes before scanning. […]

A549 PARP1 KO = assay: PARP selectivity experiment (pADPr immunofluorescence after H2O2 stimulation), A549 PARP1 KO cells; format: cell-based; conditions: Homo sapiens, 0.75 h, H2O2 20 mM for 45 minutes
Experimental: as §1

[1] = Pharmacokinetic test in rats; format: in vivo, SD rats; conditions: for Kp at 24 h: brain, 24 h after administration, cell spans the i.v. and i.g. lines, read-out: Brain/Plasma Ratio (24 h); for Kp at 24 h / bioavailability: rat; for pharmacokinetic characteristics in rats: conclusion in words; for AUC(0-t) at 24 h / clearance / Vd: rat plasma; for Vd: read-out: Vdss; for bioavailability: plasma
Experimental: 4.1. Experimental animals: Male SD rats (about 220 g, 6-8 weeks old, 6 rats/compound) purchased from CHENGDU DOSSY EXPERIMENTAL ANIMALS CO., LTD.
4.2 Experimental design: on the day of the experiment, 12 SD rats were randomly grouped according to their body weights. The animals were fasted with water available for 12-14 h one day before the administration, and were fed 4 h after the administration. Table 4. Administration information
Before and after administration, 0.15 ml of blood was taken from the orbit under isoflurane anaesthesia and placed in an EDTAK2 centrifuge tube. The tube was centrifuged at 5000 rpm at 4°C for 10 min, and plasma was collected. The blood collection time points for the intravenous administration group and intragastric administration group were: 0, 5 min, 15 min, 30 min, 1 h, 2 h, 4 h, 6 h, 8 h and 24 h. The brain tissues were collected 24 hours after the administration, rinsed with cold physiological saline to remove the residual blood on the surface, drained out and then homogenised. Before analysis and detection, all samples were stored at -80°C. The samples were quantitatively analysed by LC-MS/MS. Table 5. Pharmacokinetic parameters of test compounds in plasma of rats

[2] = PARP-1 enzyme activity, FP method, read-out: IC50

T1 sequence (P09874 whole entry): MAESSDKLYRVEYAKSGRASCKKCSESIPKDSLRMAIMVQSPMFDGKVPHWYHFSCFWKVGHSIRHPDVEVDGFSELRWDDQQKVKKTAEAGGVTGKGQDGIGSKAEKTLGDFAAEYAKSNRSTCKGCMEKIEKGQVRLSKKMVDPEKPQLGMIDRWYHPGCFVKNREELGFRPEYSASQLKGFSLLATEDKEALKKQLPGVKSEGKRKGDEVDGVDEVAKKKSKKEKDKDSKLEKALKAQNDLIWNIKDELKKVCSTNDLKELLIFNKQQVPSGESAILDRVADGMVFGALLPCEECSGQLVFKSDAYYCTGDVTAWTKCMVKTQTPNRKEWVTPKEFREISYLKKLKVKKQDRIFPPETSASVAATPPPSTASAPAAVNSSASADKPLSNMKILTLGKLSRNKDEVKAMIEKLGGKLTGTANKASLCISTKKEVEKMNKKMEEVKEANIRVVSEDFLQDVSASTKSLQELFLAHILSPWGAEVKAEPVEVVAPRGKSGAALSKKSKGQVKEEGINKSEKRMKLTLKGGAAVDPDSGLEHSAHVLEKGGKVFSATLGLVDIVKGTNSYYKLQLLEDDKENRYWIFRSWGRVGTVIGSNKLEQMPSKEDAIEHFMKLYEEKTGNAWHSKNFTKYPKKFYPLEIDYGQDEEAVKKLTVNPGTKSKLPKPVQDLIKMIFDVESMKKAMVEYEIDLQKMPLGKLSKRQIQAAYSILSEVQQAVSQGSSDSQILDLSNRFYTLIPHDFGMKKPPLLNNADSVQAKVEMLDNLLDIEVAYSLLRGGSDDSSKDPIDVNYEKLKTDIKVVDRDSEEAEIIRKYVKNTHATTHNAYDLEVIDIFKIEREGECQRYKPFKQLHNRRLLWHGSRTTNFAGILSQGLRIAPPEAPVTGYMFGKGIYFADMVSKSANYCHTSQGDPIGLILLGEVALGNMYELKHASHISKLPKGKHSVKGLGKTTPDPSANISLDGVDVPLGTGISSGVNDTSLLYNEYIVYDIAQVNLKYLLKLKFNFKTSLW

IC50 (PARP-1; [2]) [nM]	SMILES	IC50 (PARP-1) [nM]	inhibition at 10 µM (DLD-1) [%]	IC50 (DLD-1) [nM]	further results
10.5	CCc1nc2ccc(CN3CCN(c4ccc(NC(=O)c5cn(C)nc5F)nc4F)CC3)c(F)c2[nH]c1=O [Compound 6]				
12.5	C=C1CC(NC(=O)c2ccc(N3CCN(Cc4ccc5nc(C(F)F)c(=O)[nH]c5c4F)CC3)c(F)n2)C1 [Compound 7]				
5.63	CCc1nc2ccc(CN3C[C@H](Oc4ccc(C(=O)NC5CC(=C(F)F)C5)nc4F)[C@H]3C)c(F)c2[nH]c1=O (stereo partly drawn) [Compound 11]				
3.14	Cc1nc2ccc(CN3CCN(c4ccc(C(=O)NC5CC(=C(F)F)C5)nc4F)CC3)c(F)c2[nH]c1=O (stereo not drawn) [Compound 12]				
6.39	CCc1nc2ccc(CN3CCN(c4ccc(C(=O)NC5CC(=C(F)F)C5)nc4F)CC3)c(F)c2[nH]c1=O (stereo not drawn) [Compound 13]				
7.94	C=C1CC(NC(=O)c2ccc(O[C@H]3CN(Cc4ccc5nc(C)c(=O)[nH]c5c4F)[C@@H]3C)c(F)n2)C1 [Compound 18]				

Continued, compound first:

SMILES	IC50 (PARP-1; [2]) [nM]	IC50 (PARP-1) [nM]	inhibition at 10 µM (DLD-1) [%]	IC50 (DLD-1) [nM]	further results
CCc1nc2ccc(CN3CCN(c4ccc(C(=O)Nc5cn(C)nc5F)nc4F)CC3)c(F)c2[nH]c1=O [Compound 1]		2.74	94	3.64	
Cn1cc(NC(=O)c2ccc(N3CCN(Cc4ccc5nc(C(F)F)c(=O)[nH]c5c4F)CC3)c(F)n2)c(F)n1 [Compound 2]		10.8	93.1	4.67	IC50 (A549 PARP2 KO; Homo sapiens, 5 min, A549 PARP2 KO cells, H2O2 200 µM for 5 minutes): 0.63 nM; selectivity for PARP1 (A549 PARP2 KO; conclusion in words, from A549 PARP2 KO versus A549 PARP1 KO): good selectivity for PARP1; IC50 (A549 PARP1 KO): > 5000 nM; Kp at 24 h ([1]; iv): 1.03; pharmacokinetic characteristics in rats [1]: good pharmacokinetic characteristics; AUC(0-t) at 24 h ([1]; iv, i.v. (2.5 mg/kg)): 18700 ± 972 ng·h/mL; clearance ([1]; iv, i.v. (2.5 mg/kg)): 2.22 ± 0.11 mL/min/kg; Vd ([1]; iv, i.v. (2.5 mg/kg)): 0.348 ± 0.027 L/kg; bioavailability ([1]; po, i.g. (10 mg/kg)): 66.8 ± 15%; AUC(0-t) at 24 h ([1]; po, i.g. (10 mg/kg)): 50000 ± 11500 ng·h/mL
Cn1ncc(NC(=O)c2ccc(N3CCN(Cc4ccc5nc(C(F)F)c(=O)[nH]c5c4F)CC3)c(F)n2)c1F [Compound 3]		10.5	91.6	4.67	
CCc1nc2ccc(CN3CCN(c4ccc(C(=O)Nc5cnn(C)c5F)nc4F)CC3)c(F)c2[nH]c1=O [Compound 4]		3.38	91.7	3.1	
Cn1ncc(C(=O)Nc2ccc(N3CCN(Cc4ccc5nc(C(F)F)c(=O)[nH]c5c4F)CC3)c(F)n2)c1F [Compound 5]	17.1				
C=C1CC(NC(=O)c2ccc(O[C@H]3CN(Cc4ccc5nc(CC)c(=O)[nH]c5c4F)[C@@H]3C)c(F)n2)C1 [Compound 8]		5.42	86.7	16.8	Kp at 24 h ([1]; iv): 0.242; pharmacokinetic characteristics in rats [1]: good pharmacokinetic characteristics; AUC(0-t) at 24 h ([1]; iv, i.v. (2.5 mg/kg)): 5720 ± 298 ng·h/mL; clearance ([1]; iv, i.v. (2.5 mg/kg)): 4.36 ± 0.74 mL/min/kg; Vd ([1]; iv, i.v. (2.5 mg/kg)): 0.855 ± 0.16 L/kg; bioavailability ([1]; po, i.g. (10 mg/kg)): 81.9 ± 22%; AUC(0-t) at 24 h ([1]; po, i.g. (10 mg/kg)): 31800 ± 8480 ng·h/mL
C=C1CC(NC(=O)c2ccc(N3CCN(Cc4ccc5nc(C)c(=O)[nH]c5c4F)CC3)c(F)n2)C1 [Compound 9]		3.25	81.8	7.99	
C=C1CC(NC(=O)c2ccc(N3CCN(Cc4ccc5nc(CC)c(=O)[nH]c5c4F)CC3)c(F)n2)C1 [Compound 10]		4.55	87.6	6.96	
